Measurements as given in patent publication US20150322033A1, “ANTIBACTERIAL AGENT” (priority 2012, published 2015).
Values after ≈ are worked out from the molar mass of the structure shown. Where two headings read alike, the source gives them in different places.

How the values were obtained:
S. aureus Mu50 = assay: microbe, parasite or virus in culture; assay type: cell-based, Staphylococcus aureus; settings: for MIC: Staphylococcus aureus; for MIC (mg/L) Mu50: Example 1, Tables 1 to 10;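 for MIC ratio: ratio is FDA209P MIC divided by Mu50 MIC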
Protocol: (§1) S. aureus Mu50 (refer to Hiramatsu, K., Hanaki H., et al., J. Antimicrob. Chemother., 1997, 40(1), 135-6) or S. aureus FDA209P (ATCC 6538P) was cultured overnight at 37° C. in 4 mL of TBS (Tryptical Soy Broth, produced by Becton Dickinson) with shaking. After completion of the culture, the cells were suspended in fresh TBS to prepare a cell suspension showing an absorbance of 0.3 at 578 nm. Then, the cell suspension was diluted 500 times with CAMHB mentioned above.
(§2) CAMHB containing each test compound at each of the aforementioned concentrations was added to each well of a 96-well plate in a volume of 50 μL/well, the aforementioned cell suspension diluted 500 time was added to the well in a volume of 50 μL/well, and stationary culture was carried out overnight at 37° C.
(§3) MIC values (mg/L) of the flavones and quinolones against the strains were measured in the same manner as that of the measurement of MIC of Example 1, except that CAMHB containing each of the aforementioned flavones and quinolones prepared in Example 2 was used instead of CAMHB containing each of the test compounds.
(§4) MIC values of the flavones and quinolone for the strains were measured in the same manners as those of Example 1, except that S. aureus Mu50 NR-1 was also used as Staphylococcus aureus in addition to S. aureus FDA209P and S. aureus Mu50, cell suspensions of the strains were prepared.
(§5) In the same manner as that of Example 1, MIC values of M-246, M-21, J-Q21, and J-Q12.1 for Staphylococcus aureus were measured. M-246 and M-21 were obtained as commercial products, and as J-Q21 and J-Q12.1, those synthesized in Examples 6 and 7 were used.

[1] = system: S. aureus FDA209P (ATCC 6538P); assay: microbe, parasite or virus in culture; assay type: cell-based, Staphylococcus aureus; settings: for MIC: Staphylococcus aureus
Protocol: as §1, §2, §3, §4, §5

[2] = MU50, read-out: MIC (mg/L) Mu50, Example 1, Tables 1 to 10
[3] = Example 1, Tables 1 to 10, read-out: MIC (mg/L) FDA209P

Compound | MIC (S. aureus Mu50; [2]) [mg/L] | MIC [1, 3] [mg/L] | MIC (mg/L) Mu50 (S. aureus Mu50) [mg/L] | MIC (mg/L) FDA209P ([1]; Example 1, Tables 1 to 10) [mg/L] | further results
O=c1cc(-c2ccccc2)oc2ccccc12.O=c1cc(-c2ccccc2)oc2ccccc12 [Compound 25] | – | – | – | – | MIC ratio (S. aureus Mu50; (MIC value for S. aureus FDA209P)/(MIC value for S. aureus Mu50)): 2; MIC (mg/L) S. aureus Mu50 (S. aureus Mu50; Example 2, Table 12): 64 mg/L; MIC (mg/L) S. aureus FDA209P ([1]; Example 2, Table 12): 128 mg/L
O.Oc1cc(O)c2c(c1)OC(c1ccc(O)c(O)c1)C(O)C2 (single isomer, unassigned; (+)) [compound 132, (+)-3,3′,4′,5,7-Flavanpentol Hydrate] | 128 | 128 | – | – | –
O=c1cc(-c2ccc(O)cc2)oc2ccccc12 [compound 68, 2-(4-hydroxyphenyl)chromen-4-one] | 128 (≈ 537 µM) | 128 (≈ 537 µM) | – | – | –
O=c1c(O)c(-c2ccc(O)cc2O)oc2cc(O)cc(O)c12 [compound 2] | – | – | 128 (≈ 424 µM) | >128 | –
COc1ccc(-c2coc3cc(O)cc(O)c3c2=O)cc1OC [compound 117] | > 128 | > 128 | – | – | –
O=c1cc(-c2ccc(O)cc2)oc2cc(O)c(O)c(O)c12 [compound 41] | 128 (≈ 447 µM) | 128 (≈ 447 µM) | – | – | –
COc1cc(-c2coc3cc(O)c(OC)c(O)c3c2=O)cc(O)c1OC [compound 93] | 128 (≈ 355 µM) | 128 (≈ 355 µM) | – | – | –
O=c1cc(-c2ccc(O[C@@H]3O[C@H](CO)[C@@H](O)[C@H](O)[C@H]3O)c(O)c2)oc2cc(O)cc(O)c12 [compound 64] | > 128 | > 128 | – | – | –
COc1ccc(-c2coc3cc(OC(C)=O)cc(OC(C)=O)c3c2=O)cc1 [compound 72] | > 128 | > 128 | – | – | –
O=C(O)[C@H]1O[C@@H](Oc2cc3oc(-c4ccccc4)cc(=O)c3c(O)c2O)[C@H](O)[C@@H](O)[C@@H]1O [compound 59] | 128 (≈ 287 µM) | 128 (≈ 287 µM) | – | – | –
COc1cc2oc(-c3ccc(O)c(O)c3)cc(=O)c2c(O)c1OC [compound 31] | > 128 | > 128 | – | – | –
COc1cc(O)c2c(=O)c(-c3ccc(OC4OC(CO)C(O)C(O)C4O)cc3)coc2c1 (stereo not shown) [compound 78] | – | – | >128 | >128 | –
O=c1cc(-c2ccccc2)oc2c1ccc1ccccc12 [compound 58] | – | – | 128 (≈ 470 µM) | 128 (≈ 470 µM) | –
COc1ccc(-c2cc(=O)c3c(OC)c(OC)c(OC)c(OC)c3o2)cc1 [compound 30] | > 128 | 128 (≈ 344 µM) | – | – | –
O=c1c(-c2ccc(OC3OC(CO)C(O)C(O)C3O)cc2)coc2cc(O)cc(O)c12 (stereo not shown) [compound 81] | – | – | >128 | >128 | –
O=c1cc(-c2ccccc2)oc2ccc(O)cc12 [compound 13] | – | – | >128 | >128 | –
COc1cc(-c2oc3cc(O)c(OC)c(O)c3c(=O)c2OC)ccc1O [compound 29] | > 128 | > 128 | – | – | –
Cc1oc2cc(O)cc(O)c2c(=O)c1-c1ccc2c(c1)OCCCO2 [compound 83] | 128 (≈ 376 µM) | 128 (≈ 376 µM) | – | – | –
O=C(O)COc1cc(O)c2c(=O)c(-c3ccc4c(c3)OCCO4)coc2c1 [compound 102] | 128 (≈ 346 µM) | 128 (≈ 346 µM) | – | – | –
COc1cc(OC)c(-c2coc3cc(O)cc(O)c3c2=O)cc1OC [compound 98] | > 128 | 128 (≈ 372 µM) | – | – | –
O=c1c(O)c(-c2ccccc2S(=O)(=O)O)oc2ccccc12 [compound 54] | 128 (≈ 402 µM) | 128 (≈ 402 µM) | – | – | –
CC(=O)Oc1cc(OC(C)=O)c2c(=O)c(-c3cc4c(cc3C)OCCO4)c(C)oc2c1 [compound 89] | – | – | 128 (≈ 302 µM) | 128 (≈ 302 µM) | –
COc1cc(OC)c2c(=O)cc(-c3ccccc3)oc2c1C [compound 21] | – | – | >128 | >128 | –
O=c1c(O)c(-c2ccc(O)c(O)c2)oc2c(OC3OC(CO)C(O)C(O)C3O)c(O)cc(O)c12 (stereo not shown) [compound 61] | – | – | 128 (≈ 266 µM) | 128 (≈ 266 µM) | –
COc1ccc(-c2c(C(F)(F)F)oc3cc(O)cc(O)c3c2=O)cc1OC [compound 118] | 64 (≈ 167 µM) | 128 (≈ 335 µM) | – | – | –
CC(C)Oc1ccc(-c2cc(=O)c3c(OC(C)C)cc(OC(C)C)c(I)c3o2)cc1 [compound 23] | – | – | >128 | >128 | –
COc1ccc(-c2c(C)oc3cc(OC(C)=O)cc(OC(C)=O)c3c2=O)cc1 [compound 119] | > 128 | > 128 | – | – | –
O=C1CC(c2ccc(O)cc2)Oc2cc(O)cc(O)c21 (stereo not shown) [compound 128, 4′,5,7-Trihydroxyflavanone] | 128 (≈ 470 µM) | 128 (≈ 470 µM) | – | – | –

Compound | MIC (S. aureus Mu50; [2]) [mg/L] | MIC [1, 3] [mg/L] | MIC (mg/L) Mu50 (S. aureus Mu50) [mg/L] | MIC (mg/L) FDA209P ([1]; Example 1, Tables 1 to 10) [mg/L] | further results
O=c1cc(-c2ccccc2)oc2c(O)c(O)ccc12 [compound 14] | – | – | 64 (≈ 252 µM) | 64 (≈ 252 µM) | –
O=c1c(OC2OC(CO)C(O)C(O)C2O)c(-c2ccc(O)cc2)oc2cc(O)cc(O)c12 (stereo not shown) [compound 65] | – | – | >128 | >128 | –
O=c1cc(-c2ccccc2)oc2ccc3ccccc3c12 [compound 57] | – | – | 128 (≈ 470 µM) | 128 (≈ 470 µM) | –
O=c1c(O)c(-c2ccccc2)oc2ccccc12 [compound 12] | – | – | >128 | >128 | –
CC(=O)Oc1cc(OC(C)=O)c2c(=O)c(-c3ccc4c(c3)OCCO4)c(C)oc2c1 [compound 77] | – | – | >128 | >128 | –
O=c1c(-c2ccc3c(c2)OCCCO3)coc2cc(O)cc(O)c12 [compound 107] | 128 (≈ 392 µM) | 128 (≈ 392 µM) | – | – | –
COc1ccc2oc(-c3ccccc3)cc(=O)c2c1 [compound 16] | – | – | 128 (≈ 507 µM) | 128 (≈ 507 µM) | –
O=C(O)C1OC(Oc2ccc(-c3coc4cc(O)cc(O)c4c3=O)cc2)C(O)C(O)C1O (stereo not shown) [compound 95] | – | – | >128 | 128 (≈ 287 µM) | –
O=c1c(O)c(-c2ccccc2)oc2cc(O)c(O)c(O)c12 [M-21] | – | – | – | – | MIC Mu50 (S. aureus Mu50; Example 8, Table 17): 16 mg/L (≈ 55.9 µM); MIC FDA209P ([1]; Example 8, Table 17): 64 mg/L (≈ 224 µM)
COc1ccc(-c2coc3cc(O)cc(O)c3c2=O)cc1 [compound 116] | 128 (≈ 450 µM) | 128 (≈ 450 µM) | – | – | –
COc1cc(O)c(CN2CCOCC2)c2oc(-c3ccccc3)cc(=O)c12 [compound 50] | > 128 | > 128 | – | – | –
O=C(O)C1OC(Oc2cc(O)c3c(=O)cc(-c4ccc(O)c(O)c4)oc3c2)C(O)C(O)C1O (stereo not shown) [compound 62] | – | – | >128 | >128 | –
CC(=O)C1C(=O)c2ccccc2N(c2ccccc2)C1=O (stereo not shown) [compound 56] | > 128 | > 128 | – | – | –
COc1ccc(-c2cc(=O)c3c(OC)c(OC)c(OC)cc3o2)cc1O [compound 39] | 128 (≈ 357 µM) | 128 (≈ 357 µM) | – | – | –
O=c1c(O)c(-c2ccc(O)c(O)c2)oc2c(O)c(O)cc(O)c12 [compound 37] | 62 (≈ 195 µM) | 128 (≈ 402 µM) | 64 (≈ 201 µM) | – | –
O=c1cc(-c2ccc(O)c(-c3c(O)cc(O)c4c(=O)cc(-c5ccc(O)cc5)oc34)c2)oc2cc(O)cc(O)c12 [compound 45] | > 128 | > 128 | – | – | –
COc1cc(O)c(CN2CCN(C)CC2)c2oc(-c3ccccc3)cc(=O)c12 [compound 51] | – | – | 128 (≈ 336 µM) | 128 (≈ 336 µM) | –
COc1c(O)cc2oc(-c3ccc(O)cc3)c(OC)c(=O)c2c1O [compound 27] | > 128 | > 128 | – | – | –
COc1ccc(-c2cc(=O)c3c(O)c(O)c(O)cc3o2)cc1 [compound 34] | 128 (≈ 426 µM) | 128 (≈ 426 µM) | – | – | –
CC(=O)Oc1cc(OC(C)=O)c2c(=O)c(-c3ccc4c(c3)OCCCO4)c(C)oc2c1 [compound 109] | 128 (≈ 302 µM) | 128 (≈ 302 µM) | – | – | –
COc1ccc(C2CC(=O)c3c(O)cc(O)cc3O2)cc1O (stereo not shown) [compound 125] | > 128 | 128 (≈ 423 µM) | – | – | –
O=c1cc(-c2ccc(O)cc2)oc2c(C3CC3)c(O)cc(O)c12 [J-Q12.1, 8-Cyclopropyl-5,7-dihydroxy-2-(4-hydroxyphenyl)-chromen-4-one] | – | – | – | – | MIC (S. aureus Mu50; MU50, read-out: MIC Mu50, Example 8, Table 17): 8 mg/L (≈ 25.8 µM); MIC ([1]; Example 8, Table 17, read-out: MIC FDA209P): 8 mg/L (≈ 25.8 µM)
CC1(C)C=Cc2c(c3c(c4c2OCC(c2ccc(O)cc2)C4=O)OC(C)(C)C=C3)O1 (stereo not shown) [compound 105] | 128 (≈ 316 µM) | 128 (≈ 316 µM) | – | – | –
O=c1c(-c2ccc(O[C@@H]3O[C@H](CO)[C@@H](O)[C@H](O)[C@H]3O)cc2)coc2cc(O)cc(O)c12 [compound 120] | – | – | >128 | >128 | –
COc1cc(-c2[o+]c3cc(O)cc(O)c3cc2O)cc(O)c1O [compound 131] | – | – | 128 | 128 | –
COc1cc(OC)c2c(=O)c(-c3ccc(O)cc3)coc2c1 [compound 121] | > 128 | > 128 | – | – | –
COc1ccc(-c2cc(=O)c3c(O)c(OC)c(OC)cc3o2)cc1O [compound 40] | 128 (≈ 372 µM) | 128 (≈ 372 µM) | – | – | –
